Measured values from article PMC9916441, “Resveratrol Derivative Exhibits Marked Antiproliferative Actions, Affecting Stemness in Pancreatic Cancer Cells” (International Journal of Molecular Sciences, 2023).
Where two headings read alike, the source gives them in different places.

Assays:
[1] = tested on: AsPC-1, BxPC-3 and Capan-2 PC cell lines; test: Cell growth, trypan blue exclusion test; format: cell-based, human; settings: 50 μM, counted at 24, 48 and 72 h, three PC cell lines, vs control
Experimental: The cell counting was performed using the trypan blue exclusion test. Briefly, PC cells were seeded in 24-well plates (5 × 10^4 cells/well) and then were treated with 50 μM of DF5, RSV, or with vehicle and counted at 24, 48, and 72 h.

AsPC-1 [2] = test: Apoptosis assay, annexin-V staining by flow cytometry; format: cell-based, human; settings: 24 h
Experimental: (§1) The apoptosis assay was performed essentially as previously described. the analyses were performed using a CytoFLEX flow cytometer, using the FL1 detector in linear mode and the CytoExpert software (Beckmann Coulter, Milano, Italy).

BxPC-3 [3] = test: as above; format: cell-based, human; settings: 24 h
Experimental: as §1

Capan-2 [4] = test: as above; format: cell-based, human; settings: 24 h
Experimental: as §1

[5] = Enzymatic stability in simulated gastric fluid (SGF) with pepsin; format: in vitro ADME; settings: SGF pH 1.2 with pepsin, 37 °C
Experimental: The SGF and SIF, containing pepsin and pancreatin, respectively, were prepared following the USP specifications. The reactions were carried out in a shaking water bath at 37 °C. The drug stock solution (10 μL of a 10^−4 M) was added to the preheated gastrointestinal fluids and, at fixed time points (0, 15, 30, and 60 min for SGF and 0, 60, 120, and 180 min for SIF), 20 μL of the media were mixed with 200 μL of cold acetonitrile containing 0.5% v/v of formic acid. The samples were centrifuged for 10 min at 5000× g and the supernatants were analyzed using HPLC. The relative difference (RD%) was used to predict the amount of compound decomposed in the presence of gastrointestinal fluids.

PAMPA-GI permeability = format: in vitro ADME; settings: for Papp at 16 h, 500 µM: PAMPA, 16 h incubation, read-out: Permeability, Pe
Experimental: A PAMPA was used to evaluate the passive intestinal absorption of DF5. The system consisted in a 96-well, MultiScreen-IP PAMPA filter plate (donor plate) equipped with a PVDF membrane filter and a 96-well PTFE acceptor plate. The PVDF membrane was coated with 5 µL of a 2% w/v lecithin in n-dodecane solution. […] Donor and acceptor solutions, both containing 5% of DMSO v/v%, were employed to avoid precipitation of the drug. The system was assembled placing the drug-filled donor plate into the acceptor plate and incubated at room temperature for 16 h. Each solution was analyzed using HPLC and the permeability (Pe, nm/s) was determined as previously reported.

[6] = tested on: AsPC-1, BxPC-3 and Capan-2 PC cell lines; test: Cell cycle analysis by flow cytometry; format: cell-based, human; settings: 50 μM, 24 h
Experimental: To perform the cell cycle analysis, the PC cells (3 × 10^5) were collected, fixed in 70% cold ethanol, and kept at 4 °C overnight. The collected cells were incubated at 4 °C overnight in 5 μg/mL PI (final concentration) and 100 μg/mL RNAse (final concentration). The cell cycle profiles were analyzed as previously described.

cyclin B1/CDK1 complex = test: Western blot of cyclin B1, Cdc2/Cdk1 and p-Cdc2 (Thr161) in PC cell lines; format: cell-based, human; settings: 50 μM
Experimental: (§2) The PC cell lines treated with 50 μM DF5, RSV, or with vehicle (DMSO) were lysed in a cell lysis buffer containing PMSF, protease inhibitors cocktails, and phosphatase inhibitors. The protein lysate quantification and immunoblot analyses were performed as previously described.

[7] = Human plasma stability assay; format: in vitro ADME; settings: 80% human plasma, 37 °C
Experimental: The in vitro enzymatic stabilities of DF5 were assessed in human plasma and simulated gastric and intestinal fluids (SGF and SIF, respectively). For the human plasma stability assay, 10 μL of a 10^-4 M stock solution of DF5 in acetonitrile was added to a pre-heated (37 °C) plasma fraction and diluted with phosphate buffer (pH 7.4, 0.02 M) to obtain a final volume of 1 mL (80% plasma). The samples (50 µL) were extracted at various times and 200 µL of cold acetonitrile containing 0.5% v/v of formic acid were employed to stop the enzymatic reaction. After centrifugation for 10 min at 5000 g, the supernatant was removed and analyzed using HPLC [57].

p-SER^139H2AX = test: Western blot of phospho-H2AX (γH2AX) in PC cell lines; format: cell-based, human
Experimental: as §2

[8] = tested on: poly-(ADP-ribose) polymerase (PARP); test: Western blot of PARP cleavage in PC cell lines; format: cell-based, human; settings: vs untreated cells
Experimental: as §2

AsPC-1 [9] = test: Colony formation assay; format: cell-based, human; settings: AsPC-1, 20 µM, 72 h treatment
Experimental: (§3) A colony formation assay was performed as previously described. Briefly, the PC cells were seeded in 6-well plates, incubated for 24 h, and then treated for 72 h with 20 μM DF5, DF12, and RSV or with vehicle (DMSO) as indicated. After 4 days, following methanol fixation and crystal violet staining, the colonies of at least 30 cells were counted.

BxPC-3 [10] = test: Colony formation assay; format: cell-based, human; settings: BxPC-3, 20 µM, 72 h treatment
Experimental: as §3

Capan-2 [11] = test: Colony formation assay; format: cell-based, human; settings: Capan-2, 20 µM, 72 h treatment
Experimental: as §3

RD% (relative difference) ([5]; 15 min): 4.36%
RD% (relative difference) ([5]; 30 min): 7.10%
RD% (relative difference) ([5]; 60 min): 8.87%
Papp at 16 h, 500 µM (PAMPA-GI permeability; pH 5 (donor and acceptor)): 6.02 ×10⁻⁶ cm/s
Papp at 16 h, 500 µM (PAMPA-GI permeability; pH 6.5 (donor and acceptor)): 9 ×10⁻⁶ cm/s
Papp at 16 h, 500 µM (PAMPA-GI permeability; pH 7.4 (donor and acceptor)): 2.59 ×10⁻⁶ cm/s
stability in human plasma [7]: stable (stable: RD% < 5%)
SMILES: Cc1ccc(/C=C/c2ccc(O)cc2)cc1 [DF5]
effect on cell growth (cell number) [1]: significantly, drastically, and comparably affected cell growth
apoptosis induction (Annexin V+ cells) (AsPC-1 [2]; AsPC-1, 20 μM): statistically significant apoptosis
apoptosis induction (Annexin V+ cells) (AsPC-1 [2]; AsPC-1, 50 μM): significant induction of apoptosis
apoptosis induction (Annexin V+ cells) (BxPC-3 [3]; BxPC-3, 20 μM): neither compound affected apoptosis
apoptosis induction (Annexin V+ cells) (BxPC-3 [3]; BxPC-3, 50 μM): significant induction of apoptosis
apoptosis induction (Annexin V+ cells) (Capan-2 [4]; Capan-2, 20 μM): statistically significant apoptosis
apoptosis induction (Annexin V+ cells) (Capan-2 [4]; Capan-2, 50 μM): significant induction of apoptosis
Classification (GI permeation) (PAMPA-GI permeability; pH 5): Pe+ (Pe+ (indicative of high GI permeation): Pe (nm s^−1) > 10)
Classification (GI permeation) (PAMPA-GI permeability; pH 6.5): Pe+ (Pe+ (indicative of high GI permeation): Pe (nm s^−1) > 10)
Classification (GI permeation) (PAMPA-GI permeability; pH 7.4): Pe+ (Pe+ (indicative of high GI permeation): Pe (nm s^−1) > 10)
effect on cells in G0/G1 phase ([6]; across the three PC cell lines, vs untreated cells): statistically significant accumulation of cells at the G0/G1 phase
effect on cells in G2/M phase ([6]; three PC cell lines, in Capan-2 it did not reach statistical significance): drastic depletion of cells in the G2/M phase
effect on expression of the cyclin B1/CDK1 complex (cyclin B1/CDK1 complex; AsPC-1 and Capan-2, also Cdc2/CDK1 dephosphorylation at Thr-161): reduction in the expression of the cyclin B1/CDK1 complex
effect on expression of the cyclin B1/CDK1 complex (cyclin B1/CDK1 complex; BxPC-3): much less evident
activation (phosphorylation) of H2AX (p-SER^139H2AX; AsPC-1, 50 μM): marked activation of H2AX
activation (phosphorylation) of H2AX (p-SER^139H2AX; BxPC-3, 50 μM): negligible activation
activation (phosphorylation) of H2AX (p-SER^139H2AX; Capan-2, 50 μM): less marked
effect on cleaved:uncleaved PARP ratio ([8]; AsPC-1, 50 μM): strong increase in cleaved:uncleaved PARP ratios
effect on cleaved:uncleaved PARP ratio ([8]; BxPC-3, 50 μM): minimal effects on the PARP cleavage ratio
effect on cleaved:uncleaved PARP ratio ([8]; Capan-2, 50 μM): strong increase in cleaved:uncleaved PARP ratios
effect on clonogenicity (colony formation) (AsPC-1 [9]): totally abolish colony formation
effect on clonogenicity (colony formation) (BxPC-3 [10]): totally abolish colony formation
effect on clonogenicity (colony formation) (Capan-2 [11]): more drastic, prominent, and consistent effects on PC cell clonogenicity
